# According to patent publication US12390437B2, “Itaconic acid derivatives and uses thereof intreating an inflammatory disease or a disease associated with an undesirable immune response” (Sitryx Therapeutics Limited, priority 2019, dated 2025):
# Tested on: IL-1β cytokine output from THP-1s
# Assay: THP-1 AlphaLISA IL-1β cytokine assay
# Type: cell-based, human
# Conditions: Homo sapiens, THP-1, PMA-differentiated THP-1 cells, LPS 24 hr then Nigericin 1 hour; read-out: IL-1β (IC50)
# Method in brief: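 PMA-differentiated (72 h) THP-1 cells pretreated 30 min with compound, LPS-stimulated 24 h, then nigericin 1 h at 37 °C. Supernatant IL-1β and IL-6 by AlphaLISA; % inhibition normalised to ±LPS controls, IC50 from concentration-response curves.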
row,IC50,SMILES
1,10.6 µM,"C=C(CC(=O)OC(C)(C)CCCCCC)C(=O)OCC(=O)O [Example 192, 2-((2-methylene-4-((2-methyloctan-2-yl)oxy)-4-oxobutanoyl)oxy)acetic acid]"

# Tested on: not listed separately
# Assay: Mouse pharmacokinetic study, intravenous dosing
# Type: in vivo
# Conditions: male, C57BL/6, mouse, iv; plasma, 10 mg/kg i.v., time 0.05 h; read-out: Parent compound concentration following intravenous administration
# Method in brief: (§1)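 Male C57BL/6 mice (6-8 weeks, fed ad libitum) received 10 mg/kg IV by tail vein in 10% DMSO/HP-β-CD vehicle, or 100 mg/kg by oral gavage in DMSO/HPMC/Tween 80. Facial-vein blood was taken at 9 time points (N=3 each) into K2EDTA; plasma concentrations were measured by LC-MS/MS.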
row,concentration at 0.05 h,SMILES
1,36600 ng/mL,"C=C(CC(=O)OC(C)(C)CCCCCC)C(=O)OCC(=O)O [Example 192, 2-((2-methylene-4-((2-methyloctan-2-yl)oxy)-4-oxobutanoyl)oxy)acetic acid]"

# Same assay, conditions: male, C57BL/6, mouse, iv; plasma, 10 mg/kg i.v., time 0.133 h; read-out: Parent compound concentration following intravenous administration
row,concentration at 0.133 h,SMILES
1,21400 ng/mL,"C=C(CC(=O)OC(C)(C)CCCCCC)C(=O)OCC(=O)O [Example 192, 2-((2-methylene-4-((2-methyloctan-2-yl)oxy)-4-oxobutanoyl)oxy)acetic acid]"

# Same assay, conditions: male, C57BL/6, mouse, iv; plasma, 10 mg/kg i.v., time 0.25 h; read-out: Parent compound concentration following intravenous administration
row,concentration at 0.25 h,SMILES
1,11300 ng/mL,"C=C(CC(=O)OC(C)(C)CCCCCC)C(=O)OCC(=O)O [Example 192, 2-((2-methylene-4-((2-methyloctan-2-yl)oxy)-4-oxobutanoyl)oxy)acetic acid]"

# Same assay, conditions: male, C57BL/6, mouse, iv; plasma, 10 mg/kg i.v., time 0.5 h; read-out: Parent compound concentration following intravenous administration
row,concentration at 0.5 h,SMILES
1,2910 ng/mL,"C=C(CC(=O)OC(C)(C)CCCCCC)C(=O)OCC(=O)O [Example 192, 2-((2-methylene-4-((2-methyloctan-2-yl)oxy)-4-oxobutanoyl)oxy)acetic acid]"

# Same assay, conditions: male, C57BL/6, mouse, iv; plasma, 10 mg/kg i.v., time 1 h; read-out: Parent compound concentration following intravenous administration
row,concentration at 1 h,SMILES
1,400 ng/mL,"C=C(CC(=O)OC(C)(C)CCCCCC)C(=O)OCC(=O)O [Example 192, 2-((2-methylene-4-((2-methyloctan-2-yl)oxy)-4-oxobutanoyl)oxy)acetic acid]"

# Same assay, conditions: male, C57BL/6, mouse, iv; plasma, 10 mg/kg i.v., time 2 h; read-out: Parent compound concentration following intravenous administration
row,concentration at 2 h,SMILES
1,86 ng/mL,"C=C(CC(=O)OC(C)(C)CCCCCC)C(=O)OCC(=O)O [Example 192, 2-((2-methylene-4-((2-methyloctan-2-yl)oxy)-4-oxobutanoyl)oxy)acetic acid]"

# Same assay, conditions: male, C57BL/6, mouse, iv; plasma, 10 mg/kg i.v., time 4 h; read-out: Parent compound concentration following intravenous administration
row,concentration at 4 h,SMILES
1,26 ng/mL,"C=C(CC(=O)OC(C)(C)CCCCCC)C(=O)OCC(=O)O [Example 192, 2-((2-methylene-4-((2-methyloctan-2-yl)oxy)-4-oxobutanoyl)oxy)acetic acid]"

# Same assay, conditions: male, C57BL/6, mouse, iv; plasma, 10 mg/kg i.v., time 6 h; read-out: Parent compound concentration following intravenous administration
row,concentration at 6 h,SMILES
1,< 4 ng/mL,"C=C(CC(=O)OC(C)(C)CCCCCC)C(=O)OCC(=O)O [Example 192, 2-((2-methylene-4-((2-methyloctan-2-yl)oxy)-4-oxobutanoyl)oxy)acetic acid]"

# Same assay, conditions: male, C57BL/6, mouse, iv; plasma, 10 mg/kg i.v., time 8 h; read-out: Parent compound concentration following intravenous administration
row,concentration at 8 h,SMILES
1,< 4 ng/mL,"C=C(CC(=O)OC(C)(C)CCCCCC)C(=O)OCC(=O)O [Example 192, 2-((2-methylene-4-((2-methyloctan-2-yl)oxy)-4-oxobutanoyl)oxy)acetic acid]"

# Tested on: not listed separately
# Assay: Mouse pharmacokinetic study, oral administration
# Type: in vivo
# Conditions: male, C57BL/6, mouse, plasma, po, 100 mg/kg, plasma, male C57BL/6 mice, oral gavage 100 mg/kg, 0.083 h; read-out: Parent compound concentrations following oral administration, Time 0.083 h
# Method in brief: as §1
row,concentration at 0.083 h,SMILES
1,47000 ng/mL,"C=C(CC(=O)OC(C)(C)CCCCCC)C(=O)OCC(=O)O [Example 192, 2-((2-methylene-4-((2-methyloctan-2-yl)oxy)-4-oxobutanoyl)oxy)acetic acid]"

# Same assay, conditions: male, C57BL/6, mouse, plasma, po, 100 mg/kg, plasma, male C57BL/6 mice, oral gavage 100 mg/kg, 0.25 h; read-out: Parent compound concentrations following oral administration, Time 0.25 h
row,concentration at 0.25 h,SMILES
1,60700 ng/mL,"C=C(CC(=O)OC(C)(C)CCCCCC)C(=O)OCC(=O)O [Example 192, 2-((2-methylene-4-((2-methyloctan-2-yl)oxy)-4-oxobutanoyl)oxy)acetic acid]"

# Same assay, conditions: male, C57BL/6, mouse, plasma, po, 100 mg/kg, plasma, male C57BL/6 mice, oral gavage 100 mg/kg, 0.5 h; read-out: Parent compound concentrations following oral administration, Time 0.5 h
row,concentration at 0.5 h,SMILES
1,37900 ng/mL,"C=C(CC(=O)OC(C)(C)CCCCCC)C(=O)OCC(=O)O [Example 192, 2-((2-methylene-4-((2-methyloctan-2-yl)oxy)-4-oxobutanoyl)oxy)acetic acid]"

# Same assay, conditions: male, C57BL/6, mouse, plasma, po, 100 mg/kg, plasma, male C57BL/6 mice, oral gavage 100 mg/kg, 1 h; read-out: Parent compound concentrations following oral administration, Time 1 h
row,concentration at 1 h,SMILES
1,25200 ng/mL,"C=C(CC(=O)OC(C)(C)CCCCCC)C(=O)OCC(=O)O [Example 192, 2-((2-methylene-4-((2-methyloctan-2-yl)oxy)-4-oxobutanoyl)oxy)acetic acid]"

# Same assay, conditions: male, C57BL/6, mouse, plasma, po, 100 mg/kg, plasma, male C57BL/6 mice, oral gavage 100 mg/kg, 2 h; read-out: Parent compound concentrations following oral administration, Time 2 h
row,concentration at 2 h,SMILES
1,8740 ng/mL,"C=C(CC(=O)OC(C)(C)CCCCCC)C(=O)OCC(=O)O [Example 192, 2-((2-methylene-4-((2-methyloctan-2-yl)oxy)-4-oxobutanoyl)oxy)acetic acid]"

# Same assay, conditions: male, C57BL/6, mouse, plasma, po, 100 mg/kg, plasma, male C57BL/6 mice, oral gavage 100 mg/kg, 4 h; read-out: Parent compound concentrations following oral administration, Time 4 h
row,concentration at 4 h,SMILES
1,5440 ng/mL,"C=C(CC(=O)OC(C)(C)CCCCCC)C(=O)OCC(=O)O [Example 192, 2-((2-methylene-4-((2-methyloctan-2-yl)oxy)-4-oxobutanoyl)oxy)acetic acid]"

# Same assay, conditions: male, C57BL/6, mouse, plasma, po, 100 mg/kg, plasma, male C57BL/6 mice, oral gavage 100 mg/kg, 6 h; read-out: Parent compound concentrations following oral administration, Time 6 h
row,concentration at 6 h,SMILES
1,79 ng/mL,"C=C(CC(=O)OC(C)(C)CCCCCC)C(=O)OCC(=O)O [Example 192, 2-((2-methylene-4-((2-methyloctan-2-yl)oxy)-4-oxobutanoyl)oxy)acetic acid]"

# Same assay, conditions: male, C57BL/6, mouse, plasma, po, 100 mg/kg, plasma, male C57BL/6 mice, oral gavage 100 mg/kg, 8 h; read-out: Parent compound concentrations following oral administration, Time 8 h
row,concentration at 8 h,SMILES
1,41 ng/mL,"C=C(CC(=O)OC(C)(C)CCCCCC)C(=O)OCC(=O)O [Example 192, 2-((2-methylene-4-((2-methyloctan-2-yl)oxy)-4-oxobutanoyl)oxy)acetic acid]"

# Same assay, conditions: male, C57BL/6, mouse, plasma, po, 100 mg/kg, plasma, male C57BL/6 mice, oral gavage 100 mg/kg, 24 h; read-out: Parent compound concentrations following oral administration, Time 24 h
row,concentration at 24 h,SMILES
1,6.6 ng/mL,"C=C(CC(=O)OC(C)(C)CCCCCC)C(=O)OCC(=O)O [Example 192, 2-((2-methylene-4-((2-methyloctan-2-yl)oxy)-4-oxobutanoyl)oxy)acetic acid]"
